Data as given in ChEMBL document CHEMBL3885881, “DrugMatrix”.

Organism: Rattus norvegicus
Experiment: DrugMatrix - Regimen: Daily Repeat
Type: toxicity, organism-based, Sprague-Dawley
Set-up: regimen Daily Repeat, gender Male, age 6-8 weeks
Conditions: in vivo, sc, 0 mg/kg, route mini-PUMP - SUBCUTANEOUS, dose level Control, vehicle 100 % SALINE; for ABSOLUTE BASOPHIL / ABSOLUTE EOSINOPHIL / ABSOLUTE LYMPHOCYTE / ABSOLUTE MONOCYTE / ABSOLUTE SEGMENTED NEUTROPHIL / BASOPHIL / EOSINOPHIL / ERYTHROCYTE COUNT / HEMATOCRIT / HEMOGLOBIN / LEUKOCYTE COUNT / LYMPHOCYTE / MEAN CORPUSCULAR HEMOGLOBIN / MEAN CORPUSCULAR HEMOGLOBIN CONCENTRATION / MEAN CORPUSCULAR VOLUME / MONOCYTE / NEUTROPHIL / NUCLEATED RED BLOOD CELLS / PLATELET COUNT: tissue Blood; for ALANINE AMINOTRANSFERASE / ALBUMIN / ALKALINE PHOSPHATASE / ASPARTATE AMINOTRANSFERASE / BLOOD UREA NITROGEN / CARBON DIOXIDE / CHLORIDE / CHOLESTEROL / CREATININE / GLUCOSE / LACTATE DEHYDROGENASE / LIPASE / PHOSPHORUS / POTASSIUM / SODIUM / TOTAL BILIRUBIN / TOTAL PROTEIN / URIC ACID: tissue Plasma

C[C@]12CCC(=O)C=C1CC[C@@H]1[C@@H]2[C@@H](O)C[C@]2(C=O)[C@@H](C(=O)CO)CC[C@@H]12 [ALDOSTERONE]
ABSOLUTE BASOPHIL (72 h, time 3 day): 0 CELLS/uL | ABSOLUTE EOSINOPHIL (72 h, time 3 day): 77.17 CELLS/uL | ABSOLUTE LYMPHOCYTE (72 h, time 3 day): 14293.83 CELLS/uL | ABSOLUTE MONOCYTE (72 h, time 3 day): 354 CELLS/uL | ABSOLUTE SEGMENTED NEUTROPHIL (72 h, time 3 day): 1658.33 CELLS/uL | BASOPHIL (72 h, time 3 day): 0% | EOSINOPHIL (72 h, time 3 day): 0.5% | ERYTHROCYTE COUNT (72 h, time 3 day): 6.27 x10E6/uL | HEMATOCRIT (72 h, time 3 day): 36.95% | HEMOGLOBIN (72 h, time 3 day): 13.4 G/DL | LEUKOCYTE COUNT (72 h, time 3 day): 16.38 x10E3/uL | LYMPHOCYTE (72 h, time 3 day): 87.17% | MEAN CORPUSCULAR HEMOGLOBIN (72 h, time 3 day): 21.42 pg | MEAN CORPUSCULAR HEMOGLOBIN CONCENTRATION (72 h, time 3 day): 36.27 G/DL | MEAN CORPUSCULAR VOLUME (72 h, time 3 day): 59.03 fL | MONOCYTE (72 h, time 3 day): 2% | NEUTROPHIL (72 h, time 3 day): 10.33% | NUCLEATED RED BLOOD CELLS (72 h, time 3 day): 0 /100WBC | PLATELET COUNT (72 h, time 3 day): 904.67 x10E3/uL | ALANINE AMINOTRANSFERASE (72 h, time 3 day): 48.33 u/L | ALBUMIN (72 h, time 3 day): 3.82 G/DL | ALKALINE PHOSPHATASE (72 h, time 3 day): 282.33 u/L | ASPARTATE AMINOTRANSFERASE (72 h, time 3 day): 86.83 u/L | BLOOD UREA NITROGEN (72 h, time 3 day): 20.17 mg/dL | CARBON DIOXIDE (72 h, time 3 day): 34.67 mmol/L | CHLORIDE (72 h, time 3 day): 102 MEQ/L | CHOLESTEROL (72 h, time 3 day): 71.5 mg/dL | CREATININE (72 h, time 3 day): 0.2 mg/dL | GLUCOSE (72 h, time 3 day): 136.83 mg/dL | LACTATE DEHYDROGENASE (72 h, time 3 day): 159 u/L | LIPASE (72 h, time 3 day): 9 u/L | PHOSPHORUS (72 h, time 3 day): 10.12 mg/dL | POTASSIUM (72 h, time 3 day): 5.92 MEQ/L | SODIUM (72 h, time 3 day): 147.8 MEQ/L | TOTAL BILIRUBIN (72 h, time 3 day): 0.2 mg/dL | TOTAL PROTEIN (72 h, time 3 day): 6.05 G/DL | URIC ACID (72 h, time 3 day): 1.4 mg/dL | ABSOLUTE BASOPHIL (120 h, time 5 day): 0 CELLS/uL | ABSOLUTE EOSINOPHIL (120 h, time 5 day): 0 CELLS/uL | ABSOLUTE LYMPHOCYTE (120 h, time 5 day): 14257.33 CELLS/uL | ABSOLUTE MONOCYTE (120 h, time 5 day): 326 CELLS/uL | ABSOLUTE SEGMENTED NEUTROPHIL (120 h, time 5 day): 3216.67 CELLS/uL | BASOPHIL (120 h, time 5 day): 0% | EOSINOPHIL (120 h, time 5 day): 0% | ERYTHROCYTE COUNT (120 h, time 5 day): 6.11 x10E6/uL | HEMATOCRIT (120 h, time 5 day): 36.22% | HEMOGLOBIN (120 h, time 5 day): 13.18 G/DL | LEUKOCYTE COUNT (120 h, time 5 day): 17.8 x10E3/uL | LYMPHOCYTE (120 h, time 5 day): 80.5% | MEAN CORPUSCULAR HEMOGLOBIN (120 h, time 5 day): 21.62 pg | MEAN CORPUSCULAR HEMOGLOBIN CONCENTRATION (120 h, time 5 day): 36.42 G/DL | MEAN CORPUSCULAR VOLUME (120 h, time 5 day): 59.37 fL | MONOCYTE (120 h, time 5 day): 1.83% | NEUTROPHIL (120 h, time 5 day): 17.67% | NUCLEATED RED BLOOD CELLS (120 h, time 5 day): 0 /100WBC | PLATELET COUNT (120 h, time 5 day): 1311 x10E3/uL | ALANINE AMINOTRANSFERASE (120 h, time 5 day): 47 u/L | ALBUMIN (120 h, time 5 day): 3.83 G/DL | ALKALINE PHOSPHATASE (120 h, time 5 day): 260.33 u/L | ASPARTATE AMINOTRANSFERASE (120 h, time 5 day): 76.17 u/L | BLOOD UREA NITROGEN (120 h, time 5 day): 14.67 mg/dL | CARBON DIOXIDE (120 h, time 5 day): 31.33 mmol/L | CHLORIDE (120 h, time 5 day): 101.17 MEQ/L | CHOLESTEROL (120 h, time 5 day): 75 mg/dL | CREATININE (120 h, time 5 day): 0.16 mg/dL | GLUCOSE (120 h, time 5 day): 152.67 mg/dL | LACTATE DEHYDROGENASE (120 h, time 5 day): 147.33 u/L | LIPASE (120 h, time 5 day): 9.33 u/L | PHOSPHORUS (120 h, time 5 day): 10.97 mg/dL | POTASSIUM (120 h, time 5 day): 6 MEQ/L | SODIUM (120 h, time 5 day): 145.52 MEQ/L | TOTAL BILIRUBIN (120 h, time 5 day): 0.17 mg/dL | TOTAL PROTEIN (120 h, time 5 day): 5.83 G/DL | URIC ACID (120 h, time 5 day): 1.27 mg/dL | ABSOLUTE BASOPHIL ([…], time 14 day): 0 CELLS/uL | ABSOLUTE EOSINOPHIL ([…], time 14 day): 64.5 CELLS/uL | ABSOLUTE LYMPHOCYTE ([…], time 14 day): 12507.83 CELLS/uL | ABSOLUTE MONOCYTE ([…], time 14 day): 380.33 CELLS/uL | ABSOLUTE SEGMENTED NEUTROPHIL ([…], time 14 day): 2414 CELLS/uL | BASOPHIL ([…], time 14 day): 0% | EOSINOPHIL ([…], time 14 day): 0.5% | ERYTHROCYTE COUNT ([…], time 14 day): 6.1 x10E6/uL | HEMATOCRIT ([…], time 14 day): 35.4% | HEMOGLOBIN ([…], time 14 day): 12.88 G/DL | LEUKOCYTE COUNT ([…], time 14 day): 15.37 x10E3/uL | LYMPHOCYTE ([…], time 14 day): 80.83% | MEAN CORPUSCULAR HEMOGLOBIN ([…], time 14 day): 21.18 pg | MEAN CORPUSCULAR HEMOGLOBIN CONCENTRATION ([…], time 14 day): 36.43 G/DL | MEAN CORPUSCULAR VOLUME ([…], time 14 day): 58.17 fL | MONOCYTE ([…], time 14 day): 2.17% | NEUTROPHIL ([…], time 14 day): 16.5% | NUCLEATED RED BLOOD CELLS ([…], time 14 day): 0.17 /100WBC | PLATELET COUNT ([…], time 14 day): 1016 x10E3/uL | ALANINE AMINOTRANSFERASE ([…], time 14 day): 53.33 u/L | ALBUMIN ([…], time 14 day): 3.93 G/DL | ALKALINE PHOSPHATASE ([…], time 14 day): 319.83 u/L | ASPARTATE AMINOTRANSFERASE ([…], time 14 day): 84 u/L | BLOOD UREA NITROGEN ([…], time 14 day): 15.5 mg/dL | CARBON DIOXIDE ([…], time 14 day): 34 mmol/L | CHLORIDE ([…], time 14 day): 101.83 MEQ/L | CHOLESTEROL ([…], time 14 day): 57 mg/dL | CREATININE ([…], time 14 day): 0.21 mg/dL | GLUCOSE ([…], time 14 day): 182.33 mg/dL | LACTATE DEHYDROGENASE ([…], time 14 day): 104.67 u/L | LIPASE ([…], time 14 day): 9.17 u/L | PHOSPHORUS ([…], time 14 day): 11.12 mg/dL | POTASSIUM ([…], time 14 day): 5.81 MEQ/L | SODIUM ([…], time 14 day): 144.85 MEQ/L | TOTAL BILIRUBIN ([…], time 14 day): 0.18 mg/dL | TOTAL PROTEIN ([…], time 14 day): 5.92 G/DL | URIC ACID ([…], time 14 day): 1.38 mg/dL
